From patent publication EP4703359A1 (Shanghai Simr Biotechnology Co., Ltd., priority 2023, dated 2024)
Read-outs that look alike come from different tables or passages of the source.

Key:
α2-GABAA receptor [1] = molecular target: T1, α2-GABAA receptor (Homo sapiens, UniProt P18507+P47869); assay: Radioactive ligand (3H-flunitrazepam) competitive binding assay, BZD site of membrane proteins of α2-GABAAR-HEK293 cells
T1 construct: expressed in transfected cells
Source text: The α subunit, β subunit, and γ subunit are indispensable for forming a fully functional GABAA receptor. In this example, HEK293 cells stably expressing α2-GABAA receptors (α2-GABAAR) were constructed and screened respectively via liposome transfection (Felgner, P.L., et al. Proceedings of the National Academy of Sciences, 1987, 84: 7413-7417). The α2-GABAAR-HEK293 cell model co-expresses the α2 subunit (protein sequence referenced under GenBank accession number: NM_000807.4), β3 subunit (protein sequence referenced under GenBank accession number: NM_000814.5), and γ2 subunit (protein sequence referenced under GenBank accession number: NM_000816.3).
The above cell lines were subcultured. α2-GABAAR-HEK293 cells were amplified for testing the affinity of compounds to the benzodiazepine (BZD) site of GABAA receptors. Some of the α2-GABAAR-HEK293 cells in suspension during subculturing were plated on glass slides pre-treated with Poly-D-Lysine for electrophysiological testing (method reference: Patent CN 107344936 A, paragraph 0586).
The affinity of the compound for the α2-GABAA receptor was determined by competing with ^3H-flunitrazepam (isotope ^3H-labeled flunitrazepam) for binding to the BZD site of membrane proteins in HEK293 cells stably expressing human α2-GABAAR.
Membrane preparation: Cells were suspended in 50 mM Tris-HCl buffer (pH=7.4), homogenized on ice using a homogenizer for 20 seconds with 10 repetitions, and centrifuged at 4°C, 1000g for 10 minutes. The supernatant was collected, and the above steps were repeated. The supernatant was centrifuged at 4°C (33,800 × g; Thermo, rotor: A27-8x50) for 60 minutes, and the pellet was resuspended in Tris buffer (50 mM Tris-HCl, 10 mM MgCl2, 0.5 mM EDTA, 10% glycerol). The protein concentration was determined using the bicinchoninic acid (BCA) protein assay based on the copper ion reduction method (BCA kit purchased from Pierce (Annoron)). Aliquots of 1 mL were prepared and stored at -80°C.
Radioactive ligand competitive binding assay: This assay was conducted in a 200 µL system (96-well plate), containing 100 µL of cell membrane. The concentration of ^3H-flunitrazepam was 1 nM, and the concentration of the test compound ranged from […]. Flumazenil was used as a control. The low signal control well (Low Control, LC) was added with 1 µL of 2 mM flumazenil (final concentration 10 µM), while the high signal control well (High Control, HC) was added with 1 µL of dimethyl sulfoxide. The final concentration of the target membrane protein was 5 µg/well. All test compound stock solutions were prepared as 10 mM solutions in dimethyl sulfoxide. The working concentration of the samples was prepared by diluting all samples to 0.2 mM with dimethyl sulfoxide, followed by a 4-fold serial dilution to obtain a total of 8 concentration gradients. The 96-well plate was sealed with sealing film and then incubated on a shaker at room temperature for 1 hour. The GF/C filter plate was also soaked with a soaking buffer (0.3% PEI (polyethyleneimine, purchased from: Sigma-Aldrich, model: P314), stored at 4°C) for at least 0.5 hours. After the incubation was completed, the mixture was collected onto a GF/C filter plate using a cell harvester and washed four times with wash buffer (50 mM Tris-HCl, pH 7.4, stored at 4°C). After drying in a 50°C oven for 1 hour, the dried GF/C filter plate was sealed at the bottom with a film. The residual radioactivity on the filter membrane was detected using liquid scintillation counting. Each well was filled with 50 µL of scintillation fluid and sealed. Readings were taken using a Microbeta^2 (microplate counter, purchased from PerkinElmer, model: CNLL0153). The inhibitory activity of the test sample on the binding of ^3H-flunitrazepam to GABAA receptor membrane protein was calculated. […]

α2-GABAA receptor [2] = molecular target: T1, α2-GABAA receptor; assay: Whole-cell patch-clamp electrophysiology, positive allosteric modulatory activity in α2-GABAAR-HEK293 cells; type: cell-based; conditions: compound 100 nM, GABA 0.10 to 0.11 µM (approximately EC7-8), normalized to reference compound CVL-865 (= 100%); for Emax at 0.1 µM: read-out: α2-GABAAR Positive allosteric modulatory activity
Procedure, shortened: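 HEK293 cells stably co-expressing α2β3γ2 GABAA receptor, whole-cell patch clamp at -60 mV. Compounds at 100 nM final applied with GABA 0.10–0.11 µM (~EC7-8) after GABA-only current stabilized. […]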

[3] = competition with 1 nM 3H-flunitrazepam; HEK293 membranes expressing α2, β3, γ2 subunits; Ki calculated from IC50; read-out: α2 Ki

| Ki (α2-GABAA receptor [1]; [3]) [nM] | Emax at 0.1 µM (α2-GABAA receptor [2]) [%] | Structure (SMILES) | Ki (α2-GABAA receptor [1]; read-out: α2 Ki; competition with 1 nM 3H-flunitrazepam; HEK293 membranes expressing α2, β3, γ2 subunits; Ki calculated from IC50) [nM] | α2-GABAAR Positive allosteric modulatory activity (α2-GABAA receptor [2]) [%] |
| --- | --- | --- | --- | --- |
| 28.8 | 91 | COc1cccc(F)c1-c1cccn2c(N)c(C(=O)NCCC(F)(F)F)nc12 [Example 25, 3-Amino-8-(2-fluoro-6-methoxyphenyl)-N-(3,3,3-trifluoropropyl)imidazo[1,2-a]pyridine-2-carboxamide] | – | – |
| 15.5 | 155 | COc1ccc(C)cc1-c1cccn2c(N)c(C(=O)NC3CC(C)C3)nc12 (stereo not shown) [Example 33, 3-Amino-8-(2-methoxy-5-methylphenyl)-N-(3-methylcyclobutyl)imidazo[1,2-a]pyridine-2-carboxamide] | – | – |
| 5.7 | 140 | CCCNC(=O)c1nc2c(-c3cc(C#N)ccc3OC)cccn2c1N [Example 60, 3-Amino-8-(5-cyano-2-methoxyphenyl)-N-propylimidazo[1,2-a]pyridine-2-carboxamide] | – | – |
| 57 | 92 | CCCNC(=O)c1nc2c(-c3ccc(F)cc3OC)cccn2c1N [Example 53, 3-Amino-8-(4-fluoro-2-methoxyphenyl)-N-propylimidazo[1,2-a]pyridine-2-carboxamide] | – | – |
| 33.6 | 105 | CCCNC(=O)c1nc2c(-c3cccc(CCC#N)c3)cccn2c1N [Example 37, 3-Amino-8-(3-(2-cyanoethyl)phenyl)-N-propylimidazo[1,2-a]pyridine-2-carboxamide] | – | – |
| 24 | 105 | CCCNC(=O)c1nc2c(-c3c(F)cccc3OC)cccn2c1N [Example 3, 3-Amino-8-(2-fluoro-6-methoxyphenyl)-N-propylimidazo[1,2-a]pyridine-2-carboxamide] | – | – |
| 10.2 | 71 | CCCNC(=O)c1nc2c(-c3cccc(OC)c3F)cccn2c1N [Example 63, 3-Amino-8-(2-fluoro-3-methoxyphenyl)-N-propylimidazo[1,2-a]pyridine-2-carboxamide] | – | – |
| 4.46 | 107 | CCCNC(=O)c1nc2c(-c3c(F)cccc3OC)c(C#N)ccn2c1N [Example 148, 3-Amino-7-cyano-8-(2-fluoro-6-methoxyphenyl)-N-propylimidazo[1,2-a]pyridine-2-carboxamide] | – | – |
| 51 | 92 | CCCNC(=O)c1nc2c(-c3cc(C4CC4)ccc3OC)cccn2c1N [Example 68, 3-Amino-8-(5-cyclopropyl-2-methoxyphenyl)-N-propylimidazo[1,2-a]pyridine-2-carboxamide] | – | – |
| 42 | 133 | CCCNC(=O)c1nc2c(-c3cc(F)cnc3OC)cccn2c1N [Example 84, 3-Amino-8-(5-fluoro-2-methoxypyridin-3-yl)-N-propylimidazo[1,2-a]pyridine-2-carboxamide] | – | – |
| 18.7 | 50 | CCCNC(=O)c1nc2c(-c3cccc(F)c3)cccn2c1N [Example 46, 3-Amino-8-(3-fluorophenyl)-N-propylimidazo[1,2-a]pyridine-2-carboxamide] | – | – |
| 95 | 44 | CCCNC(=O)c1nc2c(-c3c(Cl)cccc3OC)cccn2c1N [Example 72, 3-Amino-8-(2-chloro-6-methoxyphenyl)-N-propylimidazo[1,2-a]pyridine-2-carboxamide] | – | – |
| 81.1 | 60 | CCCNC(=O)c1nc2c(-c3c(F)cccc3OC)nccn2c1N [Example 135, 3-amino-8-(2-fluoro-6-methoxyphenyl)-N-propylimidazo[1,2-a]pyrazine-2-carboxamide] | – | – |
| 11.9 | 66 | COc1cccc(F)c1-c1cccn2c(N)c(C(=O)NC3CC(C)C3)nc12 (stereo not shown) [Example 8, 3-Amino-8-(2-fluoro-6-methoxyphenyl)-N-(3-methylcyclobutyl)imidazo[1,2-a]pyridine-2-carboxamide] | – | – |
| 17.6 | 91 | [2H]c1ccc(OC)c(-c2cccn3c(N)c(C(=O)NCCC)nc23)c1F [Example 136, 3-Amino-8-(2-fluoro-6-methoxyphenyl-3-d)-N-propylimidazo[1,2-a]pyridine-2-carboxamide] | – | – |
| – | – | CCCNC(=O)c1nc2c(-c3cc(F)ccc3OC)cccn2c1N [Example 51] | 26 | 121 |
| 7.33 | 50 | COc1ccc(F)c(F)c1-c1cccn2c(N)c(C(=O)NC3CC(C)C3)nc12 (stereo not shown) [Example 32, 3-Amino-8-(2,3-difluoro-6-methoxyphenyl)-N-(3-methylcyclobutyl)imidazo[1,2-a]pyridine-2-carboxamide] | – | – |
| 39 | 65 | COc1cccc(F)c1-c1cccn2c(N)c(C(=O)NC3CC3)nc12 [Example 5, 3-Amino-8-(2-fluoro-6-methoxyphenyl)-N-cyclopropylimidazo[1,2-a]pyridine-2-carboxamide] | – | – |
| 38.2 | 95 | CCCNC(=O)c1nc2c(-c3ccc(F)c(C#N)c3)cccn2c1N [Example 56, 3-Amino-8-(3-cyano-4-fluorophenyl)-N-propylimidazo[1,2-a]pyridine-2-carboxamide] | – | – |
| 11.4 | 105 | CCCNC(=O)c1nc2c(-c3c(F)cccc3OC)c(F)ccn2c1N [Example 122, 3-Amino-7-fluoro-8-(2-fluoro-6-methoxyphenyl)-N-propylimidazo[1,2-a]pyridine-2-carboxamide] | – | – |
| 39.6 | 160 | CCCNC(=O)c1nc2c(-c3c(F)ccc4c3oc(=O)n4C)cccn2c1N [Example 105, 3-Amino-8-(6-fluoro-3-methyl-2-oxo-2,3-dihydrobenzo[d]oxazol-7-yl)-N-propylimidazo [1,2-a] pyridine-2-carboxamide] | – | – |
| 32 | 84 | COc1cccc(F)c1-c1cccn2c(N)c(C(=O)NCCCF)nc12 [Example 27, 3-Amino-8-(2-fluoro-6-methoxyphenyl)-N-(3-fluoropropyl)imidazo[1,2-a]pyridine-2-carboxamide] | – | – |
| 17.2 | 100 | CCCNC(=O)c1nc2c(-c3cnccc3OC)cccn2c1N [Example 85, 3-Amino-8-(4-methoxypyridin-3-yl)-N-propylimidazo[1,2-a]pyridine-2-carboxamide] | – | – |
| 14.9 | 52 | COc1cccc(F)c1-c1cccn2c(N)c(C(=O)NC3CCC3)nc12 [Example 7, 3-Amino-8-(2-fluoro-6-methoxyphenyl)-N-cyclobutylimidazo[1,2-a]pyridine-2-carboxamide] | – | – |
| 39.4 | 91 | CCCNC(=O)c1nc2c(-c3ccccc3OC)cccn2c1N [Example 61, 3-Amino-8-(2-methoxyphenyl)-N-propylimidazo[1,2-a]pyridine-2-carboxamide] | – | – |
| 27 | 93 | CCCNC(=O)c1nc2c(-c3cc4c(cc3OC)N(C)C(=O)CO4)cccn2c1N [Example 91, 3-Amino-8-(6-methoxy-4-methyl-3-oxo-3,4-dihydro-2H-benzo[b][1,4]oxazin-7-yl)-N-propylimidazo[1,2-a]pyridine-2-carboxamide] | – | – |
